From patent US20230312587A1, “PTERIDINONE COMPOUNDS AND USES THEREOF” (Vertex Pharmaceutical Incorporated, priority 2018, published 2023) come the findings set out here.

The subject of this experiment is β-catenin-TCF-mediated reporter transcription activity in Colo 205 cells. The experiment is described as follows: Colo 205 reporter assay (TCF/LEF luciferase). The settings on record: Homo sapiens, COLO 205, 5 h, Colo 205 TCF/LEF luciferase reporter, read-out: TCF reporter Colo205 IC50. It counts as cell-based. From the text: The compounds of the invention described herein were screened using the assay procedure for β-catenin-TCF-mediated reporter transcription activity described below.
Reporter cell lines were generated by stably transfecting cells of cancer cell lines (e.g., colon cancer) with a plasmid reporter construct (From SABiosciences, a QIAGEN company) that includes TCF/LEF promoter driving expression of the firefly luciferase gene. TCF/LEF reporter constructs were made in which TCF/LEF promoter, a promoter with optimal number of TCF/LEF binding sites designed by SABiosceinces, was linked upstream of the firefly luciferase gene. This construct could also include a puromycin resistance gene as a selectable marker. This construct could also be used to stably transfect Colo 205 cells, a colon cancer cell line having a mutated APC gene that causes a constitutively active β-catenin. A control cell line was generated using another plasmid construct containing the luciferase gene under the control of a CMV basal promoter which is not activated by p-catenin.
Colo 205 Cultured cells with a stably transfected reporter construct were plated at approximately 10,000 cells per well into 384 well multi-well plates for twenty four hours. The testing compounds were then added to the wells in 2-fold serial dilutions using a twenty micromolar top concentration. A series of control wells for each cell type received only compound solvent. Five hours after the addition of compound, reporter activity for luciferase was assayed, by addition of the SteadyGlo luminescence reagent (Promega). The reporter luminescence activity was measured using Pherastar plate reader (BMG Labtech). Readings were normalized to DMSO only treated cells, and normalized activities were then used in the IC50 calculations. The Colo 205 reporter assay data are summarized in Table 45: A<0.3 μM; 0.3 μM≤B<1.0 μM; 1.0 μM≤C<5.0 μM; D≥5.0 μM
Colo 205 reporter assay data has also been obtained for certain R-isomers of Formula (I) wherein R^4 is —H or -D, and wherein the carbon to which R^3 and R^4 are attached (C2 carbon of Formula (X)) has R stereochemistry; such epimeric compounds are represented using the suffix “B” attached to the Compound described herein having the S stereochemistry at the carbon to which R^3 and R^4 are attached: […]

Setting [1] is: five hours after addition of compound.

Where two headings read alike, the source gives them in different places.

For the compound `Cc1nc(N[C@H]2C[C@@H](COCc3ccc(F)cc3)C2)nc2c1NC(=O)[C@H](C)N2C` [Compound 286, (7S)-2-((cis-3-(((4-fluorobenzyl)oxy)methyl)cyclobutyl)amino)-4,7,8-trimethyl-7,8-dihydropteridin-6(5H)-one], under setting [1], the IC50 was under 300 nM.
As to `C[C@H]1C(=O)Nc2cnc(N[C@H]3C[C@H](Oc4cc(F)c(F)c(F)c4)C3)nc2N1C` [Compound 249, (7S)-7,8-dimethyl-2-((trans-3-(3,4,5-trifluorophenoxy)cyclobutyl)amino)-7,8-dihydropteridin-6(5H)-one], the IC50 under setting [1] is under 300 nM.
On to `CC[C@H]1C(=O)Nc2c(C)nc(NCc3cnn(Cc4ccc(OCC(F)(F)F)nc4)c3)nc2N1C` [Compound 433, (7S)-7-ethyl-4,8-dimethyl-2-(((1-((6-(2,2,2-trifluoroethoxy)pyridin-3-yl)methyl)-1H-pyrazol-4-yl)methyl)amino)-7,8-dihydropteridin-6(5H)-one], for which the IC50 under setting [1] was under 300 nM.
Regarding `CC(=O)c1ccc(OC[C@H]2C[C@@H](Nc3nc(C)c4c(n3)N(C)[C@@H](C(C)C)C(=O)N4)C2)cn1` [Compound 696, (S)-2-((cis-3-(((6-acetylpyridin-3-yl)oxy)methyl)cyclobutyl)amino)-7-isopropyl-4,8-dimethyl-7,8-dihydropteridin-6(5H)-one], under setting [1], the IC50 lay in the range of 300 to 1000 nM.
On to `Cc1nc(N[C@H]2C[C@H](Oc3ccc(F)c(F)c3)C2)nc2c1NC(=O)[C@H](C)N2C` [Compound 248, (7S)-2-((trans 3-(3,4-difluorophenoxy)cyclobutyl)amino)-4,7,8-trimethyl-7,8-dihydropteridin-6(5H)-one], for which, under setting [1], the half-maximal inhibitory concentration (IC50) was under 300 nM.
The same measure, in the same setting: as for `Cc1nc(N[C@H]2C[C@H](Oc3ccc(C(F)(F)F)cc3)C2)nc2c1N(C)C(=O)[C@H](C)N2C` [Compound 341, (7S)-4,5,7,8-tetramethyl-2-((trans-3-(4-(trifluoromethyl)phenoxy)-cyclobutyl)-amino)-7,8-dihydropteridin-6(5H)-one], the figure is under 300 nM.
Regarding `Cc1nc(N[C@H]2C[C@H](NC(=O)N3CCC(F)(F)CC3)C2)nc2c1NC(=O)[C@H](C(C)C)N2C` [Compound 523, 4,4-difluoro-N-(trans-3-(((S)-7-isopropyl-4,8-dimethyl-6-oxo-5,6,7,8-tetrahydropteridin-2-yl)amino)cyclobutyl)piperidine-1-carboxamide], under setting [1], the IC50 was at least 5000 nM.
With `Cc1nc(NCc2cnn(Cc3ccc(F)cc3)c2)nc2c1NC(=O)[C@H](C(C)C)N2C` [Compound 479, (S)-2-(((1-(4-fluorobenzyl)-1H-pyrazol-4-yl)methyl)amino)-7-isopropyl-4,8-dimethyl-7,8-dihydropteridin-6(5H)-one], the 50% inhibitory concentration (IC50) under setting [1] is under 300 nM.
For the compound `COc1ccc(O[C@H]2C[C@H](Nc3nc(C)c4c(n3)N(C)[C@@H](C)C(=O)N4)C2)cc1F` [Compound 350, (7S)-2-((trans-3-(3-fluoro-4-methoxyphenoxy)cyclobutyl)amino)-4,7,8-trimethyl-7,8-dihydropteridin-6(5H)-one], under setting [1], the IC50 was in the range of 300 to 1000 nM.
Consider `Cc1ncc(Cn2cc(CNc3ncc4c(n3)N(C)[C@@H](C)C(=O)N4)cn2)cn1` [Compound 166, (7S)-7,8-dimethyl-2-(((1-((2-methylpyrimidin-5-yl)methyl)-1H-pyrazol-4-yl)methyl)amino)-7,8-dihydropteridin-6(5H)-one], for which the concentration for half-maximal inhibition (IC50) under setting [1] was at least 5000 nM.
As to `Cc1nc(NCc2cnn(Cc3ccnc(Cl)c3)c2)nc2c1NC(=O)[C@H](C1CC1)N2C` [Compound 608, (S)-2-(((1-((2-chloropyridin-4-yl)methyl)-1H-pyrazol-4-yl)methyl)amino)-7-cyclopropyl-4,8-dimethyl-7,8-dihydropteridin-6(5H)-one], under setting [1], the half-inhibitory concentration (IC50) is under 300 nM.
Consider `Cc1nc(NCc2cnn(Cc3ccnc(F)c3)c2)nc2c1NC(=O)[C@H](C)N2C` [Compound 180, (7S)-2-(((1-((2-fluoropyridin-4-yl)methyl)-1H-pyrazol-4-yl)methyl)amino)-4,7,8-trimethyl-7,8-dihydropteridin-6(5H)-one], for which the IC50 under setting [1] was under 300 nM.
The same measure, in the same setting: as for `Cc1cc(OC(C)(C)C)ncc1Cn1cc(CNc2nc(C)c3c(n2)N(C)[C@@H](C)C(=O)N3)cn1` [Compound 167, (7S)-2-(((1-((6-(tert-butoxy)-4-methylpyridin-3-yl)methyl)-1H-pyrazol-4-yl)methyl)amino)-4,7,8-trimethyl-7,8-dihydropteridin-6(5H)-one], the figure is under 300 nM; as for `CO[C@H](C)[C@H]1C(=O)Nc2c(C)nc(N[C@H]3C[C@H](n4ccc(C(F)(F)F)n4)C3)nc2N1C` [Compound 731, (S)-7-((R)-1-methoxyethyl)-4,8-dimethyl-2-((trans-3-(3-(trifluoromethyl)-1H-pyrazol-1-yl)cyclobutyl)amino)-7,8-dihydropteridin-6(5H)-one], at least 5000 nM; as for `Cc1nc(NCc2cnn(Cc3ccc(Cl)nc3)c2)nc2c1NC(=O)[C@H](C(C)C)N2C` [Compound 414, (7S)-2-(((1-((6-chloropyridin-3-yl)methyl)-1H-pyrazol-4-yl)methyl)amino)-7-isopropyl-4,8-dimethyl-7,8-dihydropteridin-6(5H)-one], under 300 nM.
In the case of `Cc1nc(N[C@H]2C[C@H](Oc3ccc(OC(F)(F)F)c(F)c3)C2)nc2c1N(C)C(=O)[C@H](C)N2C` [Compound 360, (7S)-2-((trans 3-(3-fluoro-4-(trifluoromethoxy)phenoxy)cyclobutyl)amino)-4,5,7,8-tetramethyl-7,8-dihydropteridin-6(5H)-one], the IC50 under setting [1] is under 300 nM.
As for `Cc1nc(NC2CN(C(=O)c3cn(C)nc3C(F)(F)F)C2)nc2c1NC(=O)[C@H](C(C)C)N2C` [Compound 609, (S)-7-isopropyl-4,8-dimethyl-2-((1-(1-methyl-3-(trifluoromethyl)-1H-pyrazole-4-carbonyl)azetidin-3-yl)amino)-7,8-dihydropteridin-6(5H)-one], under setting [1], the IC50 was in the range of 1000 to 5000 nM.
Regarding `[2H]C([2H])([2H])N1C(=O)[C@H](C)N(C)c2nc(N[C@H]3C[C@H](Oc4cc(F)c(F)c(F)c4)C3)nc(C)c21` [Compound 327, (7S)-4,7,8-trimethyl-5-(methyl-d3)-2-((trans-3-(3,4,5-trifluorophenoxy)-cyclobutyl)-amino)-7,8-dihydropteridin-6(5H)-one], the IC50 under setting [1] is under 300 nM.
On to `Cc1nc(NCc2cnn(C3CCNCC3)c2)nc2c1NC(=O)[C@H](C)N2C` [Compound 99, (7S)-4,7,8-Trimethyl-2-(((1-(piperidin-4-yl)-1H-pyrazol-4-yl)methyl)amino)-7,8-dihydropteridin-6(5H)-one], for which the IC50 under setting [1] was at least 5000 nM.
`Cc1nc(N[C@H]2C[C@@H](COc3cnc(Cl)c(F)c3)C2)nc2c1NC(=O)[C@H](C)N2C` [Compound 367, (7S)-2-((cis-3-(((6-chloro-5-fluoropyridin-3-yl)oxy)methyl)cyclobutyl)amino)-4,7,8-trimethyl-7,8-dihydropteridin-6(5H)-one]: the IC50 under setting [1] is under 300 nM.
Take `CC[C@@H]1C(=O)Nc2cnc(NCc3cnn(Cc4ccc(F)cc4)c3)nc2N1C` [Compound I-1634]: the 50% inhibitory concentration (IC50) (R-isomer at C2 (corresponding to C2 S-isomer), 5 h) is at least 5000 nM.
With `Cc1nc(NC2CN(C(=O)c3cc(C(F)(F)F)n(C)n3)C2)nc2c1NC(=O)[C@H](C(C)C)N2C` [Compound 597, (S)-7-isopropyl-4,8-dimethyl-2-((1-(1-methyl-5-(trifluoromethyl)-1H-pyrazole-3-carbonyl)azetidin-3-yl)amino)-7,8-dihydropteridin-6(5H)-one], under setting [1], the IC50 was in the range of 1000 to 5000 nM.
